Source: patent publication US11001591B2, “TRAF 6 inhibitors” (HELMHOLTZ ZENTRUM MUENCHEN—DEUTSCHES FORSCHUNGSZENTRUM FÜR …, priority 2016, dated 2021)

Tests used:
plasma protein = assay: Plasma protein binding; format: in vitro ADME
Experimental: (§1) All ADME (plasma stability, plasma protein binding, microsomal stability, Log D, Caco-2 assay, CYP450 inhibition and hERG predictor assay) as well as pharmacokinetic studies (Tmax, Cmax, AUC0-240 min, Mean Residence Time, Elimination half life, Elimination rate constant, Volume of Distribution and Clearance) of C25-140 (compound 3) were conducted by Bienta Enamine Biology Services of Bienta/Enamine Ltd.

[1] = test system: U2932 (ABC DLBCL-MYD88 wt); assay: Cell viability in DLBCL, U2932; format: cell-based; settings: 30 μM added at day 0, 4 and 8; 9 days
Experimental: (§2) To determine the effects of C25-140 on MYD88-dependent ABC-DLBCL, we chose the HBL1 (ABC-DLBCL-MYD88 L265P), U2932 (ABC DLBCL-MYD88 wt) and BJAB (GCB DLBCL) cell lines. 1×10^6 cells of each cell line was seeded in 5 ml and treated with 30 μM compound C25-140 (compound 3) or DMSO. The entire experiment was carried out for 9 days. Every day 500 μl were taken and viable cell number was acquired using the ViCEII cell counter (Beckmann Coulter). At days 4 and 8 of the experiment the volume was again adjusted to 5 ml and samples were supplemented with 30 μM compound C25-140 or DMSO. This process was necessary to ensure linear proliferation of DMSO treated cells. All curves of C25-140 treated samples were referred to the corresponding DMSO treated controls.

[2] = test system: TRAF6 auto-ubiquitination; assay: Immunoprecipitation of TRAF6, endogenous ubiquitination in MEF cells; format: cell-based, mouse
Experimental: 2.5×10^6 MEF cells were seeded, treated with compound for 6 hours and stimulated with IL-1β (3.5 ng/mL) for 10 minutes. Cells were lysed in Co-IP lysis buffer containing 1% SDS to eliminate all cellular interactions. After cell lysis and removal of input samples, the samples were diluted to 0.1% SDS and incubated with 5 μL TRAF6 antibody EP591Y (Abcam) and immunoprecipitated with Protein-G-Sepharose beads. After washing of the beads in Co-IP wash buffer, TRAF6 protein was eluted and levels of TRAF6 ubiquitination were detected by Western Blot analysis.

CYP450 = CYP450 inhibition; format: in vitro ADME
Experimental: as §1

NF-κB = assay: EMSA NF-κB activation in Jurkat T-cells; format: cell-based, human; settings: PMA/Ionomycin
Experimental: For compound treatment, MEF cells were seeded in 6 well plates at 1.2×10^5 cells/well the day before treatment. Jurkat T-cells were seeded directly before treatment at 2×10^5 cells/sample. Six hours after compound or DMSO treatment cells were stimulated as indicated. Thereby, MEF cells were left untreated or stimulated with recombinant mouse IL-1β (1 ng/mL) or TNFα (10 ng/mL) for 20 minutes. Jurkat T-cells were stimulated with Phorbol-12-myristat-13-acetet (PMA) (400 ng/mL) and lonomycin (600 ng/mL) for 30 minutes. Eventually, cells were lysed in high-salt lysis buffer (20 mM HEPES pH 7.9; 350 mM NaCl; 1 mM MgCl2; 0.5 mM EDTA; 0.1 mM EGTA; 20% Glycerol; 1% NP-40; 10 mM NaF; 8 mM β-Glycerophosphate; 1 mM DTT; 300 μM Sodium-vanadate; complete protease inhibitor) and analyzed in EMSA assays using H2K (NF-κB) or Oct-1 (loading control) probes.

[3] = test system: 87 primary molecular targets; assay: SafetyScreen87 (Eurofins Cerep Panlabs); format: binding; settings: 10 μM
Experimental: The SafetyScreen87, a total of 87 assays, was carried out at Eurofins Cerep Panlabs. 87 primary molecular targets including 13 enzyme assays (kinases and non-kinase enzymes) and 74 binding assays (nuclear receptors, GPCRs, transporters and ion channels) were performed at a compound concentration of 10 μM C25-140. Each of the 87 assay reactions was performed at the optimised condition that was historically available at Eurofins Cerep Panlabs. In parallel to C25-140, a reference compound for each of the 87 reactions was concurrently tested to guarantee optimal setting of the assays. In this study the reference compounds performed in the same range as historic Ki values.

[4] = biological target: interaction of Ubc13 with Uev1a (Homo sapiens, UniProt P61088+Q13404); assay: Ubc13-Uev1a interaction; format: binding
interaction of Ubc13 with Uev1a, sequence (P61088 whole entry): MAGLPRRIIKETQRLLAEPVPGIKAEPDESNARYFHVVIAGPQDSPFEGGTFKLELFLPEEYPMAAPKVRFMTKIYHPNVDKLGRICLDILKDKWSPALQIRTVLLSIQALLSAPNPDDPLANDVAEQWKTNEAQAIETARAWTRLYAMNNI
interaction of Ubc13 with Uev1a, sequence (Q13404 whole entry): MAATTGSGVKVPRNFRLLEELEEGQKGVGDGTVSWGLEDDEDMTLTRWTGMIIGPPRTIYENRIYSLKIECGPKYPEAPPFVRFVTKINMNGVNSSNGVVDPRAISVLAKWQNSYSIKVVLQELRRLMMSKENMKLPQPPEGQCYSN

IKK kinase activity = assay: IKK kinase assay in MEF cells; format: cell-based, mouse
Experimental: For MEF cells, 5.5×10^5 cells were seeded, then treated with compound for 6 hours and eventually stimulated with IL-1β or TNFα for 8 minutes. 1×10^6 Jurkat T-cells were treated with compound for 6 hours and finally stimulated with PMA (400 ng/ml) and lonomycin (600 ng/ml) for 8 minutes. After cell lysis in Co-IP lysis buffer (150 mM NaCl; 25 mM Hepes (pH 7.5); 0.2% NP-40; 1 mM Glycerol; 10 mM NaF; 8 mM β-Glycerophosphat; 1 mM DTT; 300 μM Sodium-vanadate; complete protease inhibitor), input samples were taken and the supernatant was then incubated with 6 μL IKKγ antibody FL-419 (Santa Cruz Biotechnology). Upon incubation with Protein-G-Sepharose beads (GE Healthcare), beads were washed in Co-IP wash buffer (150 mM NaCl; 25 mM Hepes (pH 7.5); 0.2% NP-40; 1 mM Glycerol) and transferred into kinase reaction buffer ([…] HEPES pH7.9; 10 mM MgCl2; 20 μM ATP; 20 mM β-Glycerophosphat; 200 μM Sodium-Vanadate; 1 mM DTT) supplemented with […] GST-IκBα (1-53) and 0.5 μL ^32P-γ-ATP. After 30 minutes incubation at 37° C., reaction was stopped and analyzed by autoradiography as well as Western Blot after separation on SDS-PAGE.

ITCH = biological target: T1, ITCH (Homo sapiens, UniProt Q96J02); assay: In vitro ubiquitination assay, ITCH; format: biochemical; settings: HECT E3 ligase
T1 construct: purchased Boston Biochem one of K-102, K-260, K-200B, K-220, K-240, K-270
T1 sequence (Q96J02 whole entry): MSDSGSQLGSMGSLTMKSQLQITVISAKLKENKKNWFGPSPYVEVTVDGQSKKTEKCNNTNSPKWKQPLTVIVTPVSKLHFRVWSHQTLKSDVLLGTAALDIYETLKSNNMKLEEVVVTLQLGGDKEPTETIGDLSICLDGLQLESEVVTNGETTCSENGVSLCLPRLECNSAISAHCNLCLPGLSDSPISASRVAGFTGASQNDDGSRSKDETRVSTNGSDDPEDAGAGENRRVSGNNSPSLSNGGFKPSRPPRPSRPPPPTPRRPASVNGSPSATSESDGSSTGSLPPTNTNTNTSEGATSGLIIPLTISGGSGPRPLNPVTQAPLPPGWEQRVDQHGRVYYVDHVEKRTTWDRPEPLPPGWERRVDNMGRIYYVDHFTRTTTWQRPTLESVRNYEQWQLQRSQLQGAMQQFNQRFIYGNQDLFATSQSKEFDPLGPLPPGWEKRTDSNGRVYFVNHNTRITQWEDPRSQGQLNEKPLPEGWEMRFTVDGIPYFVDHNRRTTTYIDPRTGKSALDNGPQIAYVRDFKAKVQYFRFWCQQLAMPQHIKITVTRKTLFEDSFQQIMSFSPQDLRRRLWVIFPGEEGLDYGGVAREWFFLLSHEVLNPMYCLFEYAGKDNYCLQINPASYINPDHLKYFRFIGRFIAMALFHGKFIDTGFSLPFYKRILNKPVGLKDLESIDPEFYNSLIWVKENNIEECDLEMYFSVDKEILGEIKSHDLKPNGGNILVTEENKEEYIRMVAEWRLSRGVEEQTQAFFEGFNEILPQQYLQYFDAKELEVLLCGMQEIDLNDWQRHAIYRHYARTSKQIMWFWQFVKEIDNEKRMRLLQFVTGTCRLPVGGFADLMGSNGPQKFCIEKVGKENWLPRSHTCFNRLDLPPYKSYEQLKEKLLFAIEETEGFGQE
Experimental: For analysis of clAP1, MDM2, TRIM63, RNF4, ITCH and E6AP mediated poly-ubiquitination, the respective ubiquitin ligase kit from Boston Biochem (K-102, K-260, K-200B, K-220, K-240 and K-270) was used. Here, reaction buffer, E1, E2 and E3 enzyme (and p53 substrate in case of MDM2) were mixed and pre-incubated with compound or DMSO for 5 minutes at room temperature before adding Mg^2+-ATP and mono-ubiquitin for reaction start. Ubiquitination was visualized by Western Blot analyses.

[5] = test system: HBL1 (ABC-DLBCL-MYD88 L265P); assay: Cell viability in DLBCL, HBL1; format: cell-based; settings: 30 μM added at day 0, 4 and 8; 9 days
Experimental: as §2

- binding of Ubc13 to Uev1a [4]: did not affect
- ITCH auto-ubiquitination (ITCH): not affected
SMILES: Cc1nn(-c2ccc3nnc(C)n3n2)c(C)c1CCC(=O)N1CCC(Cc2ccccc2)CC1 [Compound 3, 1-(4-benzylpiperidin-1-yl)-3-(3,5-dimethyl-1-(3-methyl-[1,2,4]triazolo[4,3-b]pyridazin-6-yl)-1H-pyrazol-4-yl)propan-1-one]
- plasma protein binding (plasma protein): decent good plasma protein binding capacity
- viability (cell count) [1]: only slightly affected
- IL-1β-induced TRAF6 auto-ubiquitination [2]: reduced
- CYP450 inhibition (CYP450): some inhibitory potential on selected CYPs
- NF-κB activation (NF-κB): attenuated
- binding to SafetyScreen87 targets [3]: no significant binding
- IKK kinase activity after IL-1β stimulation (IKK kinase activity): decreased
- TNFα induced phosphorylation of IκBα (IKK kinase activity; TNFα): also affected
- viability (cell count) [5]: significantly reduced
